Measurements: paper PMC8232766, “Chemical Composition and Immunomodulatory Activity of Essential Oils from Rhododendron albiflorum” (Molecules, 2021)

Legend:
FPR1-HL60 cells = biological target: T1, FPR1-HL60 cells (Homo sapiens, UniProt P21462); experiment: Inhibition of fMLF-induced Ca2+ influx in FPR1-HL60 cells; assay type: cell-based; conditions: pure compounds; 10 min preincubation; induced by 5 nM fMLF
T1 construct: expressed in transfected cells
T1 sequence (P21462 1-350): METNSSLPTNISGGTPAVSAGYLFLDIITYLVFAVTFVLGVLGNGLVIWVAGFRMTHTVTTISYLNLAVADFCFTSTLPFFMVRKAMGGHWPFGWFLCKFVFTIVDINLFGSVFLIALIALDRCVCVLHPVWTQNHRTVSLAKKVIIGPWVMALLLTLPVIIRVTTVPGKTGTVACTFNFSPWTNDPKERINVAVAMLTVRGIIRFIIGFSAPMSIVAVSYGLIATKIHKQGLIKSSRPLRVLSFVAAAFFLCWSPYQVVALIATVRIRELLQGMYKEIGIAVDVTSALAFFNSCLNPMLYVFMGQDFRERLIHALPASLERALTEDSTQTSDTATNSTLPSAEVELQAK
Protocol: (§1) Human promyelocytic leukemia HL60 cells stably transfected with FPR1 (FPR1-HL60 cells) or FPR2 (FPR2-HL60 cells) were kindly provided by Dr. Marie-Josephe Rabiet, INSERM, Grenoble, France. These cells were cultured in RPMI 1640 medium containing 10% heat-inactivated fetal calf serum, 10 mM HEPES, 100 μg/mL streptomycin, 100 U/mL penicillin, and G418 (1 mg/mL). G418 was removed before assays were performed.
(§2) Changes in intracellular Ca^2+ concentrations ([Ca^2+]i) in human neutrophils were measured with a FlexStation 3 scanning fluorometer (Molecular Devices), as previously described. To assess the direct effects of test compounds or pure essential oils on Ca^2+ influx, the compounds/oils were added to the wells (final concentration of DMSO was 1%), and changes in fluorescence were monitored (λex = 485 nm, λem = 538 nm) every 5 s for 240 s at room temperature after addition of the test compound. To evaluate inhibitory effects of the compounds on FPR1/FPR2-dependent Ca^2+ influx, the compounds were added to the wells (final concentration of DMSO was 1%) with cells (human neutrophils or FPR1/FPR2 HL60 cells). The samples were preincubated for 10 min, followed by addition of 5 nM fMLF (for human neutrophils or FPR1-HL60 cells) or 5 nM WKYMVM (for FPR2-HL60 cells). The maximum change in fluorescence, expressed in arbitrary units over baseline, was used to determine the agonist response. Responses were normalized to the response induced by 5 nM fMLF or 5 nM WKYMVM, which were assigned as 100%.
(§3) For all Ca^2+ influx experiments, curve fitting (at least five or six points) and calculation of median effective concentration values (EC50 or IC50) were performed by nonlinear regression analysis of the dose–response curves generated using Prism 7 (GraphPad Software, Inc., San Diego, CA, USA).

human neutrophils [1] = experiment: Ca2+ influx (direct effect) in human neutrophils; assay type: cell-based; conditions: pure compounds, direct effect on [Ca2+]i, mean ± SD of three experiments; for EC50: Homo sapiens, Neutrophil
Excerpt: (§4) For isolation of human neutrophils, blood was collected from healthy donors in accordance with a protocol approved by the Institutional Review Board at Montana State University (Protocol #MQ041017), as described previously. Isolated neutrophils were washed and resuspended in HBSS^–. Neutrophil preparations were routinely >95% pure and >98% viable. Neutrophils were obtained from multiple different donors (n = 8); however, the cells from different donors were never pooled during experiments.
as §2, §3

human neutrophils [2] = experiment: Inhibition of fMLF-induced Ca2+ influx in human neutrophils; assay type: cell-based; conditions: pure compounds, 10 min preincubation, induced by 5 nM fMLF; for IC50: Homo sapiens, Neutrophil
Excerpt: as §4, §2, §3

MAPKAPK2 = biological target: T2, MAPKAPK2 (Homo sapiens, UniProt P49137); experiment: KINOMEscan kinase Kd determination, MAPKAPK2; assay type: binding; conditions: maximum concentration of 33 µM
T2 construct: purchased Eurofins Pharma Discovery, San Diego, CA, USA (KINOMEscan service)
Protocol: (§5) KINOMEscan®® was used to determine the dissociation constant (Kd) of the indicated sesquiterpenes for selected kinases (Eurofins Pharma Discovery, San Diego, CA, USA). […] Assays were performed in duplicate, and the average mean value is shown.

human neutrophils [3] = experiment: Neutrophil chemotaxis assay (fMLF-induced); assay type: cell-based; conditions: pure compounds, chemotaxis induced by 1 nM fMLF; for IC50: Homo sapiens, Neutrophil
Excerpt: as §4
Human neutrophils were resuspended in HBSS^+ containing 2% (v/v) heat-inactivated fetal bovine serum (2 × 10^6 cells/mL), and chemotaxis was analyzed in 96-well ChemoTx chemotaxis chambers (Neuroprobe, Gaithersburg, MD), as described previously. Curve fitting (at least eight to nine points) and calculation of median effective concentration values (IC50) were performed by nonlinear regression analysis of the dose-response curves generated using GraphPad Prism 8.

PIM1 = biological target: T3, PIM1 (Homo sapiens, UniProt P11309); experiment: KINOMEscan kinase Kd determination, PIM1; assay type: binding; conditions: maximum concentration of 33 µM
T3 construct: purchased Eurofins Pharma Discovery, San Diego, CA, USA (KINOMEscan service)
Protocol: as §5

HL60 cells = experiment: Cytotoxicity assay (CellTiter-Glo) in HL60 cells; assay type: cell-based, human; conditions: 30 min, oils up to 25 µg/mL, compounds up to 25 µM
Protocol: Cytotoxicity of essential oils and pure compounds was analyzed in human promyelocytic HL60 cells using a CellTiter-Glo Luminescent Cell Viability Assay Kit (Promega), as described previously.

[4] = test system: human C20 microglial cells; experiment: Ca2+ influx (direct effect) in C20 microglial cells; assay type: cell-based; conditions: pure compounds, direct effect on [Ca2+]i, mean ± SD of three experiments; for EC50: Homo sapiens
Protocol: (§6) Human C20 microglial cells were kindly provided by Dr. David Alvarez-Carbonell (Department of Molecular Biology and Microbiology, Case Western Reserve University, Cleveland, OH, USA); these are immortalized primary human microglial cells that maintain characteristics of primary microglial cells. C20 cells were grown at 37 °C and 5% CO2 in DMEM:F12 medium supplemented with 10% FBS, 2.5 mM L-glutamine, 110 mg/L sodium pyruvate, 15 mM HEPES, 100 μg/mL normocin, 100 μg/mL streptomycin, and 100 U/mL penicillin.
(§7) For analysis of Ca^2+ influx in C20 microglial cells, the cells were plated in 96-well black, clear bottom plates at 10^4 cells/well in DMEM/F12 medium containing 10% FBS. The cells were treated with 200 nM PMA for 24 h, and the medium was changed every day for 5 days. On day 5, the cells were loaded with FLIPR Calcium 5 (Molecular Devices) at a volume ratio of 1:1 for 30 min at 37 °C in the dark. The plates were then placed in a FlexStation 3 fluorometer, and basal fluorescence was measured (λex = 485 nm, λem = 538 nm). Essential oils or individual compounds of interest were added manually (final concentration of DMSO was 1%), and fluorescence was monitored for 2 min to assess the direct effects of these treatments on [Ca^2+]i. After a 10 min incubation at 37 °C, the fluorescence baseline was recorded again, and 10 µM fMLF was added to evaluate inhibitory effects on agonist-induced [Ca^2+]i. Responses were normalized to the response induced by 10 µM fMLF.
as §3

[5] = test system: human C20 microglial cells; experiment: Inhibition of fMLF-induced Ca2+ influx in C20 microglial cells; assay type: cell-based; conditions: 10 min, pure compounds, 10 min incubation, induced by 10 μM fMLF
Protocol: as §6, §7, §3

FPR2-HL60 cells = biological target: T4, FPR2-HL60 cells (Homo sapiens, UniProt P25090); experiment: Inhibition of WKYMVM-induced Ca2+ influx in FPR2-HL60 cells; assay type: cell-based; conditions: pure compounds; 10 min preincubation; induced by 5 nM WKYMVM
T4 construct: expressed in transfected cells
T4 sequence (P25090 1-351): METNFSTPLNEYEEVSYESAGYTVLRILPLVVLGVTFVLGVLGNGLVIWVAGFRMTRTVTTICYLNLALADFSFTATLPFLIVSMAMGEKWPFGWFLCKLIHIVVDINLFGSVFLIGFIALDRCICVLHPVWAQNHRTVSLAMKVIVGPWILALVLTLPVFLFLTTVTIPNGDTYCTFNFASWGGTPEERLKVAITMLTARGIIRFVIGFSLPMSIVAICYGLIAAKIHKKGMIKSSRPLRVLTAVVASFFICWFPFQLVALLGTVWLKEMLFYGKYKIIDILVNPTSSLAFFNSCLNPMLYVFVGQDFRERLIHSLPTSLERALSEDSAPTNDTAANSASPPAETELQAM
Protocol: as §1, §2, §3

JNK3 = biological target: T5, JNK3 (Homo sapiens, UniProt P53779); experiment: KINOMEscan kinase Kd determination, JNK3; assay type: binding; conditions: maximum concentration of 33 µM
T5 construct: purchased Eurofins Pharma Discovery, San Diego, CA, USA (KINOMEscan service)
Protocol: as §5

human neutrophils [6] = conditions: cited from earlier work; for Inhibition of agonist-induced neutrophil Ca2+ mobilization: previous studies; for Inhibition of agonist-induced Ca2+ mobilization in human neutrophils: found previously
human neutrophils [7] = test system: human neutrophils; set-up: method as in PMID 27586050, PMID 25959257; conditions: direct effect; previous studies; cited from earlier work

T2 sequence (P49137 whole entry): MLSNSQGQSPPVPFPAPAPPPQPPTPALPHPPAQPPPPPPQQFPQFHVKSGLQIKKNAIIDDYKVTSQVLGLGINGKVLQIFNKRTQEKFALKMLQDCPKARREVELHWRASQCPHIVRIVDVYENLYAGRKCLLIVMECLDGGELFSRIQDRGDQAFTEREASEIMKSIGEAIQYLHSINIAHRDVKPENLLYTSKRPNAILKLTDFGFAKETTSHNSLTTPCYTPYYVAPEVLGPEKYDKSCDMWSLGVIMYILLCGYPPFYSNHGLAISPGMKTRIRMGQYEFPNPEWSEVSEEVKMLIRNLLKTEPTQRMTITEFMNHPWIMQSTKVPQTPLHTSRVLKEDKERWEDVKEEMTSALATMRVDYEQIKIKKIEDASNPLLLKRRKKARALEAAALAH
T5 sequence (P53779 whole entry): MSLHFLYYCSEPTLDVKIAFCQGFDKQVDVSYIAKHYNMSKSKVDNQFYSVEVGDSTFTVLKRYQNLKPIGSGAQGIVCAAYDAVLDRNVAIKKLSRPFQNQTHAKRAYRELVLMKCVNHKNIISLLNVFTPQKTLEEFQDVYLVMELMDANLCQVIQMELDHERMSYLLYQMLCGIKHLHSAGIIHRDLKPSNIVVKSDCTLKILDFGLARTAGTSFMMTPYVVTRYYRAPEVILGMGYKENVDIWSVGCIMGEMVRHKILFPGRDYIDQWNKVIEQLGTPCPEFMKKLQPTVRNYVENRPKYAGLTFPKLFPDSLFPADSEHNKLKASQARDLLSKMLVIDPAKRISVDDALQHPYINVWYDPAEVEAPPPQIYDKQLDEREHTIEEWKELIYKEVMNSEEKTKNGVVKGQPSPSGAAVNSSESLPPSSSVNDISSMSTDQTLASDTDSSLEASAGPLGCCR
T3 sequence (P11309 whole entry): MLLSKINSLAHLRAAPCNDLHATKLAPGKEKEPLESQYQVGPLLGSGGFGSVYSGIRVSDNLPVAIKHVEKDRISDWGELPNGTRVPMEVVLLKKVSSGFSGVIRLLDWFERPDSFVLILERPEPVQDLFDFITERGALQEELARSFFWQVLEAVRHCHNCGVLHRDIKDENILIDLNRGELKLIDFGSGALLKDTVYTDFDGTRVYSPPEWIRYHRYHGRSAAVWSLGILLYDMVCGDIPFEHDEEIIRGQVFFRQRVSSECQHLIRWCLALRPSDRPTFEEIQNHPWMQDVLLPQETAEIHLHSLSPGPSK

## C=C[C@]1(C)Cc2occ(C)c2C[C@H]1C(=C)C [Curzerene]
FPR1-HL60 cells
  IC50: 21.8 ± 6.1 µM
Human neutrophils [1]
  EC50: 37.6 ± 8.4 µM
Human neutrophils [2]
  IC50: 11 ± 3.8 µM
MAPKAPK2
  Binding affinity (Kd) toward MAPKAPK2: did not observe any binding activity
Human neutrophils [3]
  IC50: 37.9 ± 2.2 µM
PIM1
  Binding affinity (Kd) toward PIM1: did not observe any binding activity
HL60 cells
  Cell viability (cytotoxicity), 30 min incubation: minimal effects on cell viability
[4]
  EC50: 25.9 ± 5.2 µM
[5]
  IC50: 30.7 ± 4.4 µM
FPR2-HL60 cells
  IC50: 16.7 ± 5.5 µM
JNK3
  Binding affinity (Kd) toward JNK3: did not observe any binding activity

## C=C1C2CCC(C2)C1(C)C (centres unmarked) [camphene]
Human neutrophils [6]
  Inhibition of agonist-induced neutrophil Ca2+ mobilization: no inhibitory effect

## C=C1/C=C/[C@H](C(C)C)CC/C(C)=C/CC1 [germacrene D]
Human neutrophils [6]
  Inhibition of agonist-induced Ca2+ mobilization in human neutrophils: inhibited

## C=C(C)[C@H]1CC=C(C)CC1 [limonene]
Human neutrophils [7]
  Activation of neutrophil Ca2+ mobilization: no activating effects
Human neutrophils [6]
  Inhibition of agonist-induced neutrophil Ca2+ mobilization: no inhibitory effect

## C=CC(C)(O)CCC=C(C)C (centres unmarked) [linalool]
Human neutrophils [7]
  Activation of neutrophil Ca2+ mobilization: no activating effects
Human neutrophils [6]
  Inhibition of agonist-induced neutrophil Ca2+ mobilization: no inhibitory effect

## C=CC(=C)CCC=C(C)C [myrcene]
Human neutrophils [7]
  Activation of neutrophil Ca2+ mobilization: no activating effects
Human neutrophils [6]
  Inhibition of agonist-induced neutrophil Ca2+ mobilization: no inhibitory effect

## Cc1ccc(C(C)C)cc1 [p-cymene]
Human neutrophils [7]
  Activation of neutrophil Ca2+ mobilization: no activating effects
Human neutrophils [6]
  Inhibition of agonist-induced neutrophil Ca2+ mobilization: no inhibitory effect

## C=C1CCC2(C(C)C)CC12 (centres unmarked) [sabinene]
Human neutrophils [7]
  Activation of neutrophil Ca2+ mobilization: no activating effects
Human neutrophils [6]
  Inhibition of agonist-induced neutrophil Ca2+ mobilization: no inhibitory effect

## CC1=CCC(O)(C(C)C)CC1 (centres unmarked) [terpinen-4-ol]
Human neutrophils [7]
  Activation of neutrophil Ca2+ mobilization: no activating effects
Human neutrophils [6]
  Inhibition of agonist-induced neutrophil Ca2+ mobilization: no inhibitory effect

## CC1=CCC(=C(C)C)CC1 [terpinolene]
Human neutrophils [7]
  Activation of neutrophil Ca2+ mobilization: no activating effects
Human neutrophils [6]
  Inhibition of agonist-induced neutrophil Ca2+ mobilization: no inhibitory effect

## C/C1=C\CC/C(C)=C/CC(C)(C)/C=C/C1 [α-humulene]
Human neutrophils [6]
  Inhibition of agonist-induced Ca2+ mobilization in human neutrophils: inhibited

## CC1=CCC2CC1C2(C)C (stereo not drawn) [α-pinene]
Human neutrophils [7]
  Activation of neutrophil Ca2+ mobilization: no activating effects
Human neutrophils [6]
  Inhibition of agonist-induced neutrophil Ca2+ mobilization: no inhibitory effect

## CC1=CC=C(C(C)C)CC1 [α-terpinene]
Human neutrophils [7]
  Activation of neutrophil Ca2+ mobilization: no activating effects
Human neutrophils [6]
  Inhibition of agonist-induced neutrophil Ca2+ mobilization: no inhibitory effect

## C=C1C=CC(C(C)C)CC1 (stereo not drawn) [β-Phellandrene, β-phellandrene]
FPR1-HL60 cells
  FPR1-HL60 Ca2+ Influx IC50: no effect
  IC50: > 50 µM
Human neutrophils [1]
  EC50: > 50 µM
  Ca2+ Influx Neutrophils EC50: inactive
Human neutrophils [2]
  IC50: > 50 µM
  Neutrophils Ca2+ Influx IC50: no effect
Human neutrophils [3]
  IC50: > 50 µM
  Neutrophils Chemotaxis IC50: inactive
[4]
  EC50: > 50 µM
  Ca2+ Influx C20 cells EC50: inactive
[5]
  IC50: > 50 µM
FPR2-HL60 cells
  FPR2-HL60 Ca2+ Influx IC50: no effect
  IC50: > 50 µM

## C=C1CC/C=C(\C)CC[C@@H]2[C@@H]1CC2(C)C [β-caryophyllene]
Human neutrophils [6]
  Inhibition of agonist-induced Ca2+ mobilization in human neutrophils: inhibited

## C=C1CCC2CC1C2(C)C (stereo not drawn) [β-pinene]
Human neutrophils [7]
  Activation of neutrophil Ca2+ mobilization: no activating effects
Human neutrophils [6]
  Inhibition of agonist-induced neutrophil Ca2+ mobilization: no inhibitory effect

## CC1=CCC(C(C)C)=CC1 [γ-terpinene]
Human neutrophils [7]
  Activation of neutrophil Ca2+ mobilization: no activating effects
Human neutrophils [6]
  Inhibition of agonist-induced neutrophil Ca2+ mobilization: no inhibitory effect
